# What was measured:
# humans = conditions: single doses of 0.1 g/kg body weight; cited from earlier work
# animals = experiment: Feed supplementation for improving the fertility of animals (titration of the substance into the feed); assay type: in vivo
# Description: It was found in our studies that phytohormones and beta-glucans appeared to work in a wide range of concentrations for improving the fertility of animals. The optimal concentrations may vary between different species, however, the skilled person will know how to obtain an optimal concentration for a given species, for instance by titration of the desired compound into the animal feed and testing when this would have the optimal effect. The following may serve as guidance in this process. A skilled person will appreciate that the amount of free IAA in the ready to use feed has to be adjusted in order to supply the animal with an effective amount of free IAA. In order to adjust the free IAA concentration in the feed so that a certain daily intake of free IAA is achieved, an estimate has to be made of the feed intake of an animal or animal group. A skilled person is aware of the feed intake of a particular (kind or group of) animal(s). Typically, the feed intake per day is between 0.5 and 10% of the body weight of the animal, with occasional exceptions as high as 20%. Elderly animals tend to eat less and are considered to have a feed intake per day between 0.1 and 5%, typically of 1% of their body mass. […] A particularly good source of such 1,3 and 1,6 beta glucans may be found in preparations of Agaricus blazei murill (ABM) or yeast cell walls. […] This corresponds to approximately 0.1 to 100 mg/kglw/day of 1,3 and 1,6 beta glucans. […] The effect of improving the fertility of animals was also observed when the feed of animals was supplemented with Gibberelin or Gibberellic acid.
molecule,measurement,setting,value
"O=C(O)Cc1c[nH]c2ccccc12 [free IAA, indole-3-acetic acid]",toxicity of single doses,humans,non-toxic
same,fertility of animals,animals; feed supplemented with free IAA instead of conjugated IAA,Particularly good results
same,fertility of animals,animals; feeding with 0.4 mg/kglw/day,very effective
same,fertility of animals,animals; provided in feed in the range of 0.004 and 40 mg/kglw/day,improved
"1,3 and 1,6 beta glucans",fertility of animals,animals; fed with 1 to 10 mg/kglw/day,Excellent results
C=C1C[C@]23C[C@@]1(O)CC[C@H]2[C@@]12C=C[C@H](O)[C@@](C)(C(=O)O1)[C@H]2[C@@H]3C(=O)O [Gibberellic acid],fertility of animals,"animals; between 0.01 and 0.1 mg/kglw/day, such as 0.04 mg/kglw/day",Optimal results
same,fertility of animals,animals; range of 0.004 and 0.4 mg/kglw/day,particularly pronounced
